Data: US6369236B1, “Imidazole derivatives with biphenylsulfonyl substitution method for preparing them and their use as a drug or diagnostic agent” (Aventis Pharma Deutschland GmbH, priority 1998, dated 2002)

Tests used:
[1] = tested on: Na+-dependent Cl-/HCO3- exchanger (NCBE); test: Inhibition of the Na+-dependent Cl-/HCO3- exchanger (NCBE) in human endothelial cells (BCECF fluorescence, FLIPR, pHi recovery); assay type: cell-based; details: inhibitor concentration 10 μM; human endothelial cells (ECV-304); 50 μM HOE 642 present; 35° C., 2 minutes
Method: Inhibition of the Na^+-dependent Cl^−/HCO3^− Exchanger (NCBE) in Human Endothelial Cells
Human endothelial cells (ECV-304) were detached from culture bottles with the aid of trypsin/EDTA buffer (0.05/0.02% in phosphate buffer) and, after centrifugation (100 g, 5 min), taken up in a buffered salt solution (mmol/l: 115 NaCl, 20 NH4Cl, 5 KCl, 1 CaCl2, 1 MgSO4, 20 N-(2-hydroxyethyl)piperazine-N-2-ethanesulfonic acid (HEPES), 5 glucose and 1 g/l of bovine serum albumin; pH 7.4). This cell suspension was incubated at 37° C. for 20 min with 5 μM BCECF-acetoxymethyl ester. The cells were then washed and resuspended in a sodium- and bicarbonate-free buffer solution (mmol/l: 5 HEPES, 133.8 choline chloride, 4.7 KCl, 1.25 MgCl2, 0.97 K2HPO4, 0.23 KH2PO4, 5 glucose; pH 7.4).
For subsequent fluorescence measurement in an FLIPR (Fluorescent Imaging Plate Reader) 100 μl of this cell suspension having 20,000 cells in each case were pipetted per well into a 96-well microtiter plate and this microtiter plate was centrifuged (100 g, 5 min).
In the FLIPR, 100 μl of buffer solution in each case were then removed from a further pretreated microtiter plate and pipetted into each of the 96 wells of the measurement plate. A bicarbonate- and sodium-containing buffer solution (mmol/l: 5 HEPES, 93.8 NaCl, 40 NaHCO3, 4.7 KCl, 1.25 CaCl2, 1.25 MgCl2, 0.97 Na2HPO4, 0.23 NaH2PO4, 5 glucose; pH 7.4) which contained 50 μM HOE 642 was used for a 100% control, i.e. a recovery of the intracellular pH (pHi) via the NCBE. For a 0% control, i.e. no pHi recovery at all, a bicarbonate-free, sodium-containing buffer solution (mmol/l: 5 HEPES, 133.8 NaCl, 4.7 KCl, 1.25 CaCl2, 1.25 MgCl2, 0.97 Na2HPO4, 0.23 NaH2PO4, 5 glucose; pH 7.4) was employed, to which 50 μM HOE 642 were likewise added. The compounds according to the invention were added to the sodium- and bicarbonate-containing solution in various concentrations.
After addition of the buffer solutions to the dye-loaded, acidified cells in the measurement plate, the rise in the fluorescence intensity, which corresponded to a rise in the pHi, in each well of the microtiter plate was determined. The kinetics were in this case recorded at 35° C. for a period of 2 minutes.
The increase in the fluorescence intensities for different concentrations of the compounds according to the invention was related to the two controls and from this the inhibitory action of the substances was determined.

Row | melting point | SMILES | Residual activity of the NCBE at an inhibitor concentration of 10 μM (in %) [1] [%]
1 | > 270 °C | COCCOc1nc(-c2ccccc2)n(Cc2ccc(-c3ccccc3S(=O)(=O)NC#N)cc2S(C)(=O)=O)c1C=O [Example 1, 4′-[5-Formyl-4-(2-methoxyethoxy)-2-phenylimidazol-1-ylmethyl]-3′-methanesulfonylbiphenyl-2-sulfonylcyanamide] | 9.8
2 | 195 °C (dec.) | COCCOc1nc(-c2ccccc2)n(Cc2ccc(-c3ccccc3S(=O)(=O)NC#N)cc2Cl)c1C=O [Example 2, 3′-Chloro-4′-[5-formyl-4-(2-methoxyethoxy)-2-phenylimidazol-1-ylmethyl]-biphenyl-2-sulfonylcyanamide] | 18.9
3 |  | COCCOc1nc(-c2ccc(C(C)C)cc2)n(Cc2ccc(-c3ccccc3S(=O)(=O)NC#N)cc2)c1C=O [Example 3, 4′-[5-Formyl-2-(4-isopropylphenyl)-4-(2-methoxyethoxy)imidazol-1-ylmethyl]biphenyl-2-sulfonylcyanamide] | 29.6
4 | 162 °C | COCCOc1cc(-c2ccccc2S(=O)(=O)NC#N)ccc1Cn1c(-c2ccccc2)nc(OCCOC)c1C=O [Example 4, 4′-[5-Formyl-4-(2-methoxyethoxy)-2-phenylimidazol-1-ylmethyl]-3′-(2-methoxyethoxy)biphenyl-2-sulfonylcyanamide] | 13.5
